Measurements from ChEMBL document CHEMBL1138517, “Synthesis and structure-activity relationship of griseofulvin analogues as inhibitors of centrosomal clustering in cancer cells” (J Med Chem, 2009).

Assay: Inhibition of centrosomal clustering in human SCC114 cells expressing GFPalpha-tubulin assessed as mitotic cells with multipolar spindles by fluorescence microscopy
Format: functional, cell-based

Row | Compound | IC50
1 | COC1=CC(=O)C[C@@H](C)[C@]12Oc1c(Cl)c(OC)cc(O)c1C2=O | > 100 µM
2 | CCOc1cc(OC)c(Cl)c2c1C(=O)[C@@]1(O2)C(OC)=CC(=O)C[C@H]1C | > 100 µM
3 | CCOC1=CC(=O)C[C@@H](C)[C@]12Oc1c(Cl)c(OC)cc(OC)c1C2=O | 6.6 µM
4 | COc1cc(OC)c2c(c1Cl)O[C@]1(C2=O)C(OC(C)C)=CC(=O)C[C@H]1C | 6.8 µM
5 | COC1=C/C(=N\O)C[C@@H](C)[C@]12Oc1c(Cl)c(OC)cc(OC)c1C2=O | 17 µM
6 | COc1cc(OC)c2c(c1Cl)O[C@@]1(C(=O)C(Cc3ccccc3)=C(O)C[C@H]1C)C2=O | > 100 µM
7 | CCCOC1=C(I)C(=O)C[C@@H](C)[C@]12Oc1c(Cl)c(OC)cc(OC)c1C2=O | 2 µM
8 | COC1=CC(=O)C[C@@H](C)[C@]12Oc1c(Cl)c(OC)c([N+](=O)[O-])c(OC)c1C2=O | > 100 µM
9 | COc1cc(OC)c2c(c1Cl)O[C@]1(C2=O)C(OCc2ccccc2)=C(I)C(=O)C[C@H]1C | > 100 µM
10 | CCCCCOC1=CC(=O)C[C@@H](C)[C@]12Oc1c(Cl)c(OC)cc(OC)c1C2=O | 2.8 µM
11 | COc1cc(OC)c2c(c1Cl)O[C@]1(C2=O)C(OC2CCCC2)=CC(=O)C[C@H]1C | 1.3 µM
12 | COc1cc(OC)c2c(c1Cl)O[C@]1(C2=O)C(OCc2ccc(C)cc2)=CC(=O)C[C@H]1C | 0.9 µM
13 | COc1cc(OC)c2c(c1Cl)O[C@]1(C2=O)C(OCc2ccc(-c3ccccc3)cc2)=CC(=O)C[C@H]1C | 2.9 µM
14 | COC1=C/C(=N\N(C)C)C[C@@H](C)[C@]12Oc1c(Cl)c(OC)cc(OC)c1C2=O | 27 µM
15 | COc1cc(OC)c2c(c1Cl)O[C@]1(C2=O)C(=O)C(C)(C)C(=O)C[C@H]1C | > 100 µM
16 | COc1cc(OC)c2c(c1Cl)O[C@]1(C2=O)C(OCC2CC2)=CC(=O)C[C@H]1C | 1.8 µM
17 | COc1cc(OC)c2c(c1Cl)O[C@]1(C2=O)C(SCc2ccccc2)=CC(=O)C[C@H]1C | 1.3 µM

Row | Compound | IC50
18 | COC1=C[C@@H](O)C[C@@H](C)[C@]12Oc1c(Cl)c(OC)cc(OC)c1C2=O | > 100 µM
19 | COc1cc(OC)c2c(c1Cl)O[C@@]1(C2=O)[C@H](C)C[C@H](O)C[C@@H]1OC | > 100 µM
20 | COc1cc(OC)c2c(c1Cl)O[C@]1(C2=O)C(OCCc2ccccc2)=CC(=O)C[C@H]1C | 15 µM
21 | COc1cc(OC)c2c(c1Cl)O[C@@]1(C(=O)C=C(O)C[C@H]1C)C2=O | > 100 µM
22 | COC1=CC(=O)C[C@@H](C)[C@]12Oc1c(Cl)c(OC)c(NCc3ccccc3)c(OC)c1C2=O | > 100 µM
23 | COc1cc(OC)c2c(c1Cl)O[C@]1(C2=O)C(OCc2ccccc2)=CC(=O)C[C@H]1C | 0.9 µM
24 | COc1cc(OC)c2c(c1Cl)O[C@]1(C2=O)C(OCc2ccccc2)=C/C(=N\O)C[C@H]1C | 0.9 µM
25 | COC1=CC(=O)C[C@@H](C)[C@]12Oc1c(Cl)c(OC)cc(OCc3ccccc3)c1C2=O | > 100 µM
26 | COC1=C(I)C(=O)C[C@@H](C)[C@]12Oc1c(Cl)c(OC)cc(OC)c1C2=O | > 100 µM
27 | CCCOC1=CC(=O)C[C@@H](C)[C@]12Oc1c(Cl)c(OC)cc(OC)c1C2=O | 6.6 µM
28 | COC1=CC(=O)C[C@@H](C)[C@]12Oc1c(Cl)c(OC)c(N)c(OC)c1C2=O | > 100 µM
29 | COc1cc(OC)c2c(c1Cl)O[C@]1(C2=O)C(OCC23CC4CC(CC(C4)C2)C3)=CC(=O)C[C@H]1C | 3.7 µM
30 | CCCCOC1=CC(=O)C[C@@H](C)[C@]12Oc1c(Cl)c(OC)cc(OC)c1C2=O | 2.5 µM
31 | COc1cc(OC)c2c(c1Cl)O[C@]1(C2=O)C(Oc2ccccc2)=CC(=O)C[C@H]1C | 1.5 µM
32 | CCCCCCOC1=CC(=O)C[C@@H](C)[C@]12Oc1c(Cl)c(OC)cc(OC)c1C2=O | 4 µM
33 | COC1=CC(=O)C[C@@H](C)[C@]12Oc1c(Cl)c(OC)cc(OC)c1C2=O [GRISEOFULVIN] | 24 µM
34 | COC1=CC(=O)[C@@]2(Oc3c(Cl)c(OC)cc(OC)c3C2=O)[C@H](C)C1 [ISOGRISEOFULVIN] | > 100 µM
